# Results reported in US12065430B2, “Indazole compound or salt thereof” (TAIHO PHARMACEUTICAL CO., LTD., priority 2018, dated 2024).
# Columns and labels:
# G12C K-Ras4B (1-169) = G12C K-Ras4B (1-169) (Homo sapiens (Human), UniProt P01116, G12C); experiment: Test of compounds on whether to bind to KRASG12C (LC-MS compound binding rate); conditions: final compound concentration of 2 μM, 1 μM protein, 25° C. for 2 hours
# In short: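 K-Ras4B (1-169) WT and G12C (1 μM each, mixed) in 1×TBS, 0.1 mM TCEP incubated with compound (final 2 μM) 2 h at 25° C; quenched with 0.2% formic acid. Intact-protein LC-MS (ESI+, deconvoluted); binding rate = adduct signal/(adduct + unbound signal), giving selectivity over WT.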
# NCI-H358 cells = experiment: Growth inhibition activity on KRAS-G12C mutant cell line (NCI-H358) (in vitro, CellTiter-Glo2.0); format: cell-based; conditions: Homo sapiens, NCI-H358, 72 h, 3-day culture in the presence of the compound
# Method: NCI-H358 cells (ATCC, Cat #: CRL-5807), which are a KRAS-G12C mutant human lung cancer cell line, were suspended in a 10% fetal bovine serum-containing RPMI1640 medium (manufactured by Fujifilm Wako Pure Chemical Corporation.). The cell suspension was seeded into each well of a 384-well flat-bottom microplate and cultured in an incubator containing 5% CO2 gas at 37° C. for 1 day. The test compound was dissolved in DMSO, and diluted with DMSO to give a concentration 500 times the final concentration. The solution of the test compound in DMSO was diluted with the medium used for suspending cells and added to each well of the cell-culture plate to give a DMSO final concentration of 0.2%, followed by culture in an incubator containing 5% CO2 gas at 37° C. for another 3 days. The cell count after 3-day culture in the presence of the compound was measured using CellTiter-Glo2.0 (manufactured by Promega Corporation) in accordance with the protocol recommended by Promega Corporation. The growth inhibition rate was calculated from the following equation, and the concentration of the test compound at which 50% inhibition was achieved (IC50 (nM)) was determined. […] Growth Inhibition Rate (%)=(C−T)/(C)×100 • T: the emission intensity in a well into which a test compound was added. • C: the emission intensity in a well into which a test compound was not added.
# G12C K-Ras4B (1-169), sequence (P01116 other isoform, or with tags, fused parts or gaps G12C): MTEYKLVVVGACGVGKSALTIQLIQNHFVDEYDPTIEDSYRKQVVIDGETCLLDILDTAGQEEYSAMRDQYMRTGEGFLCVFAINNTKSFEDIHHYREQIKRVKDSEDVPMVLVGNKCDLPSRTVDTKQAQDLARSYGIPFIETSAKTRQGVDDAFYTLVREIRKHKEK
Structure (SMILES),binding rate for G12C K-Ras4B (1-169) (G12C K-Ras4B (1-169)),IC50 (NCI-H358 cells) [nM]
"C=CC(=O)N1CC(NC(=O)c2c(C)nc(CNc3n[nH]c4cc(Cl)c(C(C)(C)C)cc34)n2C)C1 [Example 3, N-(1-acryloylazetidin-3-yl)-2-(((5-(tert-butyl)-6-chloro-1H-indazol-3-yl)amino)methyl)-1,4-dimethyl-1H-imidazole-5-carboxamide]","A (a binding rate of 80% or more is rated “A,”)",114
"C=CC(=O)N1CC(NC(=O)c2c(C)nc(CNc3n[nH]c4cc(Cl)c(C(C)(C)C)cc34)n2C(C)C)C1 [Example 13, N-(1-acryloylazetidin-3-yl)-2-(((5-(tert-butyl)-6-chloro-1H-indazol-3-yl)amino)methyl)-1-isopropyl-4-methyl-1H-imidazole-5-carboxamide]","A (a binding rate of 80% or more is rated “A,”)",135
"C=CC(=O)N1CC(NC(=O)c2c(Cl)nc(CNc3n[nH]c4cc(Cl)c(C(C)(C)C)cc34)n2C)C1 [Example 29, N-(1-acryloylazetidin-3-yl)-2-(((5-(tert-butyl)-6-chloro-1H-indazol-3-yl)amino)methyl)-4-chloro-1-methyl-1H-imidazole-5-carboxamide]","B (a binding rate of 60% or more and less than 80% is rated “B,”)",34
"C=CC(=O)N1CC(NC(=O)c2c(C(F)F)nc(CNc3n[nH]c4cc(Cl)c(C(C)(C)C)cc34)n2C(C)C)C1 [Example 33, N-(1-acryloylazetidin-3-yl)-2-(((5-(tert-butyl)-6-chloro-1H-indazol-3-yl)amino)methyl)-4-(difluoromethyl)-1-isopropyl-1H-imidazole-5-carboxamide]","A (a binding rate of 80% or more is rated “A,”)",153
"C=CC(=O)N1CC(NC(=O)c2c(Cl)nc(CNc3n[nH]c4cc(Cl)c(C(C)(C)C)cc34)n2C(C)C)C1 [Example 35, N-(1-acryloylazetidin-3-yl)-2-(((5-(tert-butyl)-6-chloro-1H-indazol-3-yl)amino)methyl)-4-chloro-1-isopropyl-1H-imidazole-5-carboxamide]","B (a binding rate of 60% or more and less than 80% is rated “B,”)",67
"C=CC(=O)N1C[C@H](NC(=O)c2c(C)nc(CNc3n[nH]c4cc(Cl)c(C(C)(C)C)cc34)n2C)[C@@H](F)C1 [Example 64, N-((3S,4S)-1-acryloyl-4-fluoropyrrolidin-3-yl)-2-(((5-(tert-butyl)-6-chloro-1H-indazol-3-yl)amino)methyl)-1,4-dimethyl-1H-imidazole-5-carboxamide]","A (a binding rate of 80% or more is rated “A,”)",241
"C=CC(=O)N1C[C@H](NC(=O)c2c(F)nc(CNc3n[nH]c4cc(Cl)c(C(C)(C)C)cc34)n2C)[C@@H](F)C1 [Example 75, N-((3S,4S)-1-acryloyl-4-fluoropyrrolidin-3-yl)-2-(((5-(tert-butyl)-6-chloro-1H-indazol-3-yl)amino)methyl)-4-fluoro-1-methyl-1H-imidazole-5-carboxamide]","A (a binding rate of 80% or more is rated “A,”)",142
"C=CC(=O)N1C[C@H](NC(=O)c2c(Cl)nc(CNc3n[nH]c4cc(Cl)c(C(C)(C)C)cc34)n2C)[C@@H](F)C1 [Example 76, N-((3S,4S)-1-acryloyl-4-fluoropyrrolidin-3-yl)-2-(((5-(tert-butyl)-6-chloro-1H-indazol-3-yl)amino)methyl)-4-chloro-1-methyl-1H-imidazole-5-carboxamide]","A (a binding rate of 80% or more is rated “A,”)",232
"C=CC(=O)N1C[C@@H](C)[C@@H](NC(=O)c2c(Cl)nc(CNc3n[nH]c4cc(Cl)c(C(C)(C)C)cc34)n2C)C1 [Example 78, N-((3R,4R)-1-acryloyl-4-methylpyrrolidin-3-yl)-2-(((5-(tert-butyl)-6-chloro-1H-indazol-3-yl)amino)methyl)-4-chloro-1-methyl-1H-imidazole-5-carboxamide]","B (a binding rate of 60% or more and less than 80% is rated “B,”)",350
"C=CC(=O)N1CC(NC(=O)c2c(C(F)F)nc(CNc3n[nH]c4cc(Cl)c(C(C)(C)C)cc34)n2C2CCN(C(C)C)C2)C1.O=CO (stereo not shown) [Example 93, N-(1-acryloylazetidin-3-yl)-2-(((5-(tert-butyl)-6-chloro-1H-indazol-3-yl)amino)methyl)-4-(difluoromethyl)-1-(1-isopropylpyrrolidin-3-yl)-1H-imidazole-5-carboxamide formate]","A (a binding rate of 80% or more is rated “A,”)",40
"C=CC(=O)N1CC(NC(=O)c2c(Cl)nc(CNc3n[nH]c4cc(Cl)c(C(C)(C)C)cc34)n2[C@H]2CCOC2)C1 [Example 97, (S)—N-(1-acryloylazetidin-3-yl)-2-(((5-(tert-butyl)-6-chloro-1H-indazol-3-yl)amino)methyl)-4-chloro-1-(tetrahydrofuran-3-yl)-1H-imidazole-5-carboxamide]","A (a binding rate of 80% or more is rated “A,”)",52
"C=CC(=O)N1CC(NC(=O)c2c(Cl)nc(CNc3n[nH]c4cc(Cl)c(C(C)(C)C)cc34)n2C2CCOCC2)C1 [Example 101, N-(1-acryloylazetidin-3-yl)-2-(((5-(tert-butyl)-6-chloro-1H-indazol-3-yl)amino)methyl)-4-chloro-1-(tetrahydro-2H-pyran-4-yl)-1H-imidazole-5-carboxamide]","A (a binding rate of 80% or more is rated “A,”)",54
"C=CC(=O)N1CC(NC(=O)c2c(Cl)nc(CNc3n[nH]c4cc(Cl)c(C(C)(C)C)cc34)n2[C@@H]2CCOC2)C1 [Example 102, (R)—N-(1-acryloylazetidin-3-yl)-2-(((5-(tert-butyl)-6-chloro-1H-indazol-3-yl)amino)methyl)-4-chloro-1-(tetrahydrofuran-3-yl)-1H-imidazole-5-carboxamide]","A (a binding rate of 80% or more is rated “A,”)",69
"C=CC(=O)N1CC(NC(=O)c2c(Cl)nc(CNc3n[nH]c4cc(Cl)c(C(C)(C)C)cc34)n2C2CCN(C)CC2)C1 [Example 103, N-(1-acryloylazetidin-3-yl)-2-(((5-(tert-butyl)-6-chloro-1H-indazol-3-yl)amino)methyl)-4-chloro-1-(1-methylpiperidin-4-yl)-1H-imidazole-5-carboxamide]","A (a binding rate of 80% or more is rated “A,”)",29
"C=CC(=O)N1CC(NC(=O)c2c(Cl)nc(CNc3n[nH]c4cc(Cl)c(C(C)(C)C)cc34)n2C2CCCOC2)C1 (stereo not shown) [Example 104, N-(1-acryloylazetidin-3-yl)-2-(((5-(tert-butyl)-6-chloro-1H-indazol-3-yl)amino)methyl)-4-chloro-1-(tetrahydro-2H-pyran-3-yl)-1H-imidazole-5-carboxamide]","A (a binding rate of 80% or more is rated “A,”)",91
"C=CC(=O)N1CC(NC(=O)c2c(Cl)nc(CNc3n[nH]c4cc(Cl)c(C(C)(C)C)cc34)n2[C@@H]2CCN(CC(F)F)[C@H]2C)C1 [Example 125, N-(1-acryloylazetidin-3-yl)-2-(((5-(tert-butyl)-6-chloro-1H-indazol-3-yl)amino)methyl)-4-chloro-1-((2S,3R)-1-(2,2-difluoroethyl)-2-methylpyrrolidin-3-yl)-1H-imidazole-5-carboxamide]","A (a binding rate of 80% or more is rated “A,”)",
"C=CC(=O)N1CC(NC(=O)c2cnc(CNc3n[nH]c4cc(Cl)c(Br)cc34)n2C)C1 [Reference Example 1, N-(1-acryloylazetidin-3-yl)-2-(((5-bromo-6-chloro-1H-indazol-3-yl)amino)methyl)-1-methyl-1H-imidazole-5-carboxamide, reference compound]",E (a binding rate of less than 20% is rated “E.”),
"C=CC(=O)N1CC(NC(=O)c2ccc(CNc3n[nH]c4cc(Cl)c(C(C)(C)C)cc34)o2)C1 [Reference Example 2, N-(1-acryloylazetidin-3-yl)-5-(((5-(tert-butyl)-6-chloro-1H-indazol-3-yl)amino)methyl)furan-2-carboxamide, reference compound]",E (a binding rate of less than 20% is rated “E.”),
"C=CC(=O)N1CC(NC(=O)c2c(-c3ccccc3)nc(CNc3n[nH]c4cc(Cl)c(C(C)(C)C)cc34)n2C)C1 [Reference Example 3, N-(1-acryloylazetidin-3-yl)-2-(((5-(tert-butyl)-6-chloro-1H-indazol-3-yl)amino)methyl)-1-methyl-4-phenyl-1H-imidazole-5-carboxamide, reference compound]",E (a binding rate of less than 20% is rated “E.”),
